According to patent publication US20140221499A1, “NOVEL RODENT CONTROL AGENTS AND USES THEREOF” (priority 2011, published 2014):

How the values were obtained:
olfactory TAARs = test: TAAR reporter gene assay, panel of mouse and rat TAARs in HEK293 cells; type: cell-based; conditions: mouse and rat TAARs
Source text: Here, we set out to identify agonists for additional mouse and rat TAARs. We examined odor response profiles using a previously established reporter gene assay based on cAMP-dependent odor transduction in olfactory sensory neurons (40, 42). Briefly, TAAR plasmids were transfected into HEK293 cells along with a cAMP-dependent reporter gene encoding secreted alkaline phosphatase (CRE-SEAP). TAARs were expressed both in unmodified form and as fusion proteins with an N-terminal sequence of bovine rhodopsin (‘Rho tag’) that promotes cell surface expression of some chemosensory receptors (35). Transfected cells were incubated with test chemicals, and phosphatase activity was quantified with a fluorescent substrate as a reporter for TAAR activation. In initial experiments, we tested 38 different odorant mixtures containing 244 structurally diverse test chemicals (2-5 μM) for the ability to activate each mTAAR. Subsequently, we tested 73 amines that included known mTAAR agonists and related chemicals for the ability to activate each rTAAR.
TAAR functional assays. Full Taar coding regions were cloned into pcDNA3.1-(Invitrogen) with or without a 5′ DNA extension of 69 bp encoding the first 20 amino acids of bovine rhodopsin followed by a cloning linker ([…]). Point mutations were introduced in mTAAR7e and mTAAR7f by overlap extension PCR. Functional assays were performed as described (40, 42). Fluorescence was measured on an EnVision plate reader (Perkin Elmer) and SEAP activity graphed as relative fluorescence of a phosphatase substrate.

mouse TAAR4 = target: T1, mouse TAAR4 (Mus musculus, UniProt Q5QD15); test: TAAR4 CRE-SEAP reporter gene assay in transfected HEK293 cells; type: cell-based; conditions: concentration series of pure chemicals
T1 construct: Full Taar coding regions were cloned into pcDNA3.1-(Invitrogen); expressed in transfected cells; host or cells: HEK293
T1 sequence (Q5QD15 1-347): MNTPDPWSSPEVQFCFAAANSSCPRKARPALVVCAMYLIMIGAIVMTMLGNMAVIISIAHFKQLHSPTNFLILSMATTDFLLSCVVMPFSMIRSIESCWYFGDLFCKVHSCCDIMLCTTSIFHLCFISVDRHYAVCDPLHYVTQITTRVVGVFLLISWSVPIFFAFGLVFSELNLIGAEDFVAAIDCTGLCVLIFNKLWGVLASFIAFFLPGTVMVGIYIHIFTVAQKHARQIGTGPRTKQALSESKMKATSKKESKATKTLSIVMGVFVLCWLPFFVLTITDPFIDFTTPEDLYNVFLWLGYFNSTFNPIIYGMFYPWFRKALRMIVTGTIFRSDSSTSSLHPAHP
Procedure: HEK293 cells were co-transfected with TAAR expression plasmids and a cAMPdependent reporter gene encoding secreted alkaline phosphatase (CRE-SEAP). Transfected cells were incubated with urine extracts from different mammalian species, and phosphatase activity was quantified with a fluorescent substrate as a reporter for TAAR activation.
Test urines were diluted in serum-free media containing penicillin G (100 Units/ml, Invitrogen) and streptomycin sulfate (100 mg/ml, Invitrogen). SEAP activity is measured as fluorescence resulting from dephosphorylation of a substrate, 4-methylumbelliferyl phosphate. Fluorescence values were obtained using an EnVision plate reader (Perkin Elmer) and are reported directly without normalization.

[1] = test system: corticosterone levels in rat plasma; test: Plasma corticosterone assay after odor exposure; type: in vivo; conditions: 30 min exposure, 10% amine or 2% TMT, 1 ml, ±SEM
Procedure: Avoidance to 2-phenylethylamine in rats was associated with acute changes in circulating levels of the stress hormone corticosterone.
Plasma corticosterone assay. […] Corticosterone levels were measured in duplicate using a competitive radioactive binding assay as described previously (Pryce C R, Bettschen D, Bahr N I, & Feldon J (2001) Comparison of the effects of infant handling, isolation, and nonhandling on acoustic startle, prepulse inhibition, locomotion, and HPA activity in the adult rat. Behav Neurosci 115(1):71-83).

Sprague-Dawley rats = test: Open field odor avoidance; type: in vivo, rat; conditions: ten minute exposure, 12 animals ±SEM; 1 ml urine or 5 μl amine
Procedure: We next examined behavioral responses of rodents to 2-phenylethylamine. […] Behaviors of rats in a square-shaped arena were recorded and analyzed following placement of test stimuli in a pseudorandom corner (FIG. 5A). […] Thus, 2-phenylethylamine, in the absence of other predator odor cues, was sufficient to evoke rat avoidance behavior.
Open field behavioral analysis. Rat behavioral responses to odors in the open field were measured as described previously (Fendt M (2006) Exposure to urine of canids and felids, but not of herbivores, induces defensive behavior in laboratory rats. Journal of chemical ecology 32(12):2617-2627) with the following modifications. Adult Sprague-Dawley rats (240-340 g; Janvier, Le Genest St. Isle, France) were placed in the center of a 45 cm×45 cm Plexiglass arena (TSE Systems, Bad Homburg, Germany) equipped with infrared sensors (distance 14 mm, illumination 80-120 lux). The arena contained glass dishes (36 mm) in each corner, with one dish containing test stimuli. Prior to testing, animals were habituated to the arena by introducing them for three consecutive days. […] Location of the rats was automatically recorded using the infrared detectors and analyzed (TSE Systems software). Statistical significance was measured using Wilcoxon Signed Test (**p<0.01; comparison with chance level (25%)). […]

mouse TAAR3 = target: T2, mouse TAAR3 (Mus musculus, UniProt Q5QD16); test: TAAR3 CRE-SEAP reporter gene assay in transfected HEK293 cells; type: cell-based
T2 construct: Full Taar coding regions were cloned into pcDNA3.1-(Invitrogen); expressed in transfected cells; host or cells: HEK293
T2 sequence (Q5QD16 1-343): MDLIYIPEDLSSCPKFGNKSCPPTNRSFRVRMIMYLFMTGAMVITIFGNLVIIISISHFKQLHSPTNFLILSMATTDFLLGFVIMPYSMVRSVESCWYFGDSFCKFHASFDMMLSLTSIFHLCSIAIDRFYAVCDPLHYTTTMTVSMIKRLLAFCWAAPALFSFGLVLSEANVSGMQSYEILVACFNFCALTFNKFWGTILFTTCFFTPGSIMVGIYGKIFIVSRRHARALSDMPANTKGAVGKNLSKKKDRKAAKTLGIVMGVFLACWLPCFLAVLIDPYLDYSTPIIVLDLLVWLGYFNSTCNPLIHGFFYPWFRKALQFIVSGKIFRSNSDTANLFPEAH
Procedure: Reporter gene assays were performed on HEK293 cells transfected with mouse TAAR3 and CRE-SEAP.
TAAR functional assays. Reporter gene assays were performed as described (Liberles S D & Buck LB (2006) A second class of chemosensory receptors in the olfactory epithelium. Nature 442(7103):645-650) with the following minor modifications. Test urines were diluted in serum-free media containing penicillin G (100 Units/ml, Invitrogen) and streptomycin sulfate ([…], Invitrogen). SEAP activity is measured as fluorescence resulting from dephosphorylation of a substrate, 4-methylumbelliferyl phosphate. Fluorescence values were obtained using an EnVision plate reader (Perkin Elmer) and are reported directly without normalization. All TAARs, except mouse TAAR3, were expressed as fusion proteins with an N-terminal sequence of bovine rhodopsin (Krautwurst D, Yau K W, & Reed R R (1998) Identification of ligands for olfactory receptors by functional expression of a receptor library. Cell 95(7):917-926).

[2] = test system: mouse olfactory sensory neurons; test: Confocal calcium imaging of olfactory sensory neurons in tissue slices; type: cell-based; conditions: dorsal olfactory epithelium
Procedure: The mammalian olfactory system encodes odor identity using combinations of olfactory receptors (11). […] Here, we used a confocal imaging strategy to record cytosolic calcium transients of single sensory neurons in real time. Viability of analyzed neurons was determined after odor exposures by KCl-induced depolarization.
Confocal calcium imaging of olfactory sensory neurons in tissue slices. Recordings were performed as described (Spehr M, et al. (2006) Essential role of the main olfactory system in social recognition of major histocompatibility complex peptide ligands. J Neurosci 26(7):1961-1970) with the following modifications. For calcium sensitive dye loading, slices of olfactory epithelium were incubated (30 min, 4° C.) in HEPES solution (in mM: 145 NaCl, 5 KCl, 1 CaCl2, 1 MgCl2, 10 HEPES; pH=7.3) containing Fluo-4/AM (2 μM; Molecular Probes). Slices were transferred to a recording chamber (Slice Mini Chamber, Luigs & Neumann, Ratingen, Germany) and visualized using a Leica DM6000CFS confocal fixed stage upright microscope (Leica Microsystems, Mannheim, Germany) equipped with an apochromatic water immersion objective (HC X APO L20x/1.0 W) and infrared-optimized differential interference contrast (DIC) optics. Slices were anchored via stainless steel wires with 0.1 mm lycra threads and continuously superfused with HEPES-buffered solution. Changes in cytosolic calcium were monitored over time at 1.0 Hz frame rate. Stimulus application as well as solution exchange during inter-stimulus intervals was achieved by a custom-made, pressure-driven focal application device consisting of a software-controlled valve bank connected to a 7-in-1 ‘perfusion pencil’. Rhodamine application controlled for uniform flow and even stimulus application throughout the epithelial sensory surface. Offline analysis of time-lapse experiments was performed using LAS-AF software (Leica). All cells in a given field of view were marked as individual regions of interest (ROIs), and the relative fluorescence intensity for each ROI was calculated and processed as a function of time.

## CN1CCCCC1 [1-methylpiperidine, N-methylpiperidine]
Olfactory TAARs
  TAAR activation: activated TAARs

## OCCc1ccccc1 [2-phenylethanol]
Mouse TAAR4
  TAAR4 activation: did not activate TAAR4 at any concentration tested

## NCCCc1ccccc1 [3-phenylpropylamine]
Mouse TAAR4
  TAAR4 activation: activates TAAR4 at high concentrations

## CCCCN(C)C [N,N-dimethylbutylamine]
Olfactory TAARs
  TAAR activation: activated TAARs

## CCCCCCCCN(C)C [N,N-dimethyloctylamine]
Olfactory TAARs
  TAAR activation: activated TAARs

## CC1=NC(C)SC1C (stereo not shown) [TMT, 2,5-dihydro-2,4,5-trimethylthiazole]
[1]
  plasma levels of corticosterone: 238 ± 21 ng/mL

## NCc1ccccc1 [benzylamine, reference compound]
Sprague-Dawley rats
  percentage of time rats are located in the odor quadrant: 29±7.2%
Mouse TAAR4
  TAAR4 activation: did not similarly activate TAAR4
[1]
  plasma levels of corticosterone: 130 ± 32 ng/mL
Mouse TAAR3
  EC50: ~200 µM
[2]
  carnivore odor-selective neurons activated by 2-phenylethylamine that also responded to benzylamine: 0/1268

## NC1CCCCC1 [cyclohexylamine]
Olfactory TAARs
  TAAR activation: activated TAARs

## CC(C)CCN [isoamylamine]
Olfactory TAARs
  TAAR activation: activated TAARs
Mouse TAAR3
  TAAR3 detection: preferred ligand

## COc1ccc2[nH]cc(CCN(C)C)c2c1 [ligand 7, 5-methoxy-N,N-dimethyltryptamine]
Olfactory TAARs
  TAAR activation: activated different TAAR7 paralogs

## CCCCNC [methylbutylamine]
Olfactory TAARs
  TAAR activation: activated TAARs
